Results from patent US11098038B2, “Imidazole-based anticancer agents and derivatives thereof, and methods of making and using same” (The University of Toledo, priority 2017, dated 2021).

How the values were obtained:
[1] = system: chromosome alignment, centromeres, and spindle body; assay: Fluorescence microscopy of chromosome alignment, centromeres and spindle body; assay type: cell-based; settings: cells treated for several hours, FIGS. 8A-8B
Excerpt: FIGS. 8A-8B: Color images showing effects of compound 25 on chromosome alignment, centromeres, and spindle body. Microtubules that make up the mitotic spindle are detected with an antibody linked to a green fluorophore, which was detected with a fluorescence microscope. Centromeres were detected with a far red fluorophore (they are pseudocolored pink). DNA was detected with Hoechst DNA stain, which is blue.
In normal cells (FIG. 8A, upper two panels), chromosomes line up between the spindle poles at metaphase. In cells treated with compound 25 for several hours (FIG. 8A, lower two panels), cells still enter mitosis but centromeres are found all over the cell (not just in the middle between the poles of the spindle). […] However, when ZM is combined with compound 25, what was observed was a very dramatic disruption of spindle architecture. […] Without wishing to be bound by theory, it is believed that both Aurora B and the targets of compound 25 work in parallel to control tubulin function. When either one is inhibited alone, there is no effect since the other pathway compensates. When both are inhibited, the defect is detected.

RXF393 = assay: NCI 60 screen, RXF393; assay type: cell-based; settings: Homo sapiens, RXF 393, Renal
Procedure: (§1) The compounds synthesized were tested at the National Cancer Institute (NCI) for anti-proliferative activity in the 60 human tumor cell line assay.

CAKI-1 = assay: NCI 60 screen, CAKI-1; assay type: cell-based; settings: Homo sapiens, Renal
Procedure: as §1

NCI-322M = assay: NCI 60 screen, NCI-322M; assay type: cell-based; settings: Homo sapiens, Non-Small Cell Lung
Procedure: as §1

UACC-62 = assay: NCI 60 screen, UACC-62; assay type: cell-based; settings: Homo sapiens, Melanoma
Procedure: as §1

ACHN = assay: NCI 60 screen, ACHN; assay type: cell-based; settings: Homo sapiens, Renal
Procedure: as §1

A498 = assay: NCI 60 screen, A498; assay type: cell-based; settings: Homo sapiens, Renal
Procedure: as §1

SNB-19 = assay: NCI 60 screen, SNB-19; assay type: cell-based; settings: Homo sapiens, CNS
Procedure: as §1

COLO 205 = assay: NCI 60 screen, COLO 205; assay type: cell-based; settings: Homo sapiens, Colon
Procedure: as §1

A549/ATCC = assay: NCI 60 screen, A549/ATCC; assay type: cell-based; settings: Homo sapiens, Non-Small Cell Lung
Procedure: as §1

HL-60(TB) = assay: NCI 60 screen, HL-60(TB); assay type: cell-based; settings: Homo sapiens, Leukemia
Procedure: as §1

MDA-MB-231/ATCC = assay: NCI 60 screen, MDA-MB-231/ATCC; assay type: cell-based; settings: Homo sapiens, Breast
Procedure: as §1

NCI-H522 = assay: NCI 60 screen, NCI-H522; assay type: cell-based; settings: Homo sapiens, Non-Small Cell Lung
Procedure: as §1

K-562 = assay: NCI 60 screen, K-562; assay type: cell-based; settings: Homo sapiens, K562, Leukemia
Procedure: as §1

SK-OV-3 = assay: NCI 60 screen, SK-OV-3; assay type: cell-based; settings: Homo sapiens, Ovarian
Procedure: as §1

SK-MEL-2 [2] = assay: NCI 60 screen, SK-MEL-2 (first line); assay type: cell-based; settings: Homo sapiens; Melanoma, SK-MEL-2 (first of two lines so named, r37)
Procedure: as §1

HOP-92 = assay: NCI 60 screen, HOP-92; assay type: cell-based; settings: Homo sapiens, Non-Small Cell Lung
Procedure: as §1

HCT-116 = assay: NCI 60 screen, HCT-116; assay type: cell-based; settings: Homo sapiens, Colon
Procedure: as §1

SW-620 = assay: NCI 60 screen, SW-620; assay type: cell-based; settings: Homo sapiens, Colon
Procedure: as §1

RPMI-8226 = assay: NCI 60 screen, RPMI-8226; assay type: cell-based; settings: Homo sapiens, Leukemia
Procedure: as §1

MOLT-4 = assay: NCI 60 screen, MOLT-4; assay type: cell-based; settings: Homo sapiens, Leukemia
Procedure: as §1

HT29 = assay: NCI 60 screen, HT29; assay type: cell-based; settings: Homo sapiens, HT-29, Colon
Procedure: as §1

MALME-3M = assay: NCI 60 screen, MALME-3M; assay type: cell-based; settings: Homo sapiens, Melanoma
Procedure: as §1

SN12C = assay: NCI 60 screen, SN12C; assay type: cell-based; settings: Homo sapiens, Renal
Procedure: as §1

SR = assay: NCI 60 screen, SR; assay type: cell-based; settings: Homo sapiens, Leukemia
Procedure: as §1

NCI-460 = assay: NCI 60 screen, NCI-460; assay type: cell-based; settings: Homo sapiens, Non-Small Cell Lung
Procedure: as §1

SF-539 = assay: NCI 60 screen, SF-539; assay type: cell-based; settings: Homo sapiens, CNS
Procedure: as §1

HCC-2998 = assay: NCI 60 screen, HCC-2998; assay type: cell-based; settings: Homo sapiens, Colon
Procedure: as §1

TK-10 = assay: NCI 60 screen, TK-10; assay type: cell-based; settings: Homo sapiens, Renal
Procedure: as §1

SK-MEL-2 [3] = assay: NCI 60 screen, SK-MEL-2 (second line); assay type: cell-based; settings: Homo sapiens; Melanoma, SK-MEL-2 (second of two lines so named, r38)
Procedure: as §1

DU-145 = assay: NCI 60 screen, DU-145; assay type: cell-based; settings: Homo sapiens, Prostatic
Procedure: as §1

MCF7 = assay: NCI 60 screen, MCF7; assay type: cell-based; settings: Homo sapiens, Breast
Procedure: as §1

EKVX = assay: NCI 60 screen, EKVX; assay type: cell-based; settings: Homo sapiens, Non-Small Cell Lung
Procedure: as §1

HS 578T = assay: NCI 60 screen, HS 578T; assay type: cell-based; settings: Homo sapiens, Breast
Procedure: as §1

NCI-H23 = assay: NCI 60 screen, NCI-H23; assay type: cell-based; settings: Homo sapiens, Non-Small Cell Lung
Procedure: as §1

CCRF-CEM = assay: NCI 60 screen, CCRF-CEM; assay type: cell-based; settings: Homo sapiens, Leukemia
Procedure: as §1

UACC-257 = assay: NCI 60 screen, UACC-257; assay type: cell-based; settings: Homo sapiens, Melanoma
Procedure: as §1

HCT15 = assay: NCI 60 screen, HCT15; assay type: cell-based; settings: Homo sapiens, HCT-15, Colon
Procedure: as §1

OVCAR-8 = assay: NCI 60 screen, OVCAR-8; assay type: cell-based; settings: Homo sapiens, Ovarian
Procedure: as §1

U251 = assay: NCI 60 screen, U251; assay type: cell-based; settings: Homo sapiens, U-251, CNS
Procedure: as §1

M14 = assay: NCI 60 screen, M14; assay type: cell-based; settings: Homo sapiens, Melanoma
Procedure: as §1

HOP-62 = assay: NCI 60 screen, HOP-62; assay type: cell-based; settings: Homo sapiens, Non-Small Cell Lung
Procedure: as §1

786-0 = assay: NCI 60 screen, 786-0; assay type: cell-based; settings: Homo sapiens, Renal
Procedure: as §1

OVCAR-4 = assay: NCI 60 screen, OVCAR-4; assay type: cell-based; settings: Homo sapiens, Ovarian
Procedure: as §1

MDA-MB-468 = assay: NCI 60 screen, MDA-MB-468; assay type: cell-based; settings: Homo sapiens, Breast
Procedure: as §1

SF-295 = assay: NCI 60 screen, SF-295; assay type: cell-based; settings: Homo sapiens, CNS
Procedure: as §1

LOX IMVI = assay: NCI 60 screen, LOX IMVI; assay type: cell-based; settings: Homo sapiens, Melanoma
Procedure: as §1

OVCAR-3 = assay: NCI 60 screen, OVCAR-3; assay type: cell-based; settings: Homo sapiens, Ovarian
Procedure: as §1

UO-31 = assay: NCI 60 screen, UO-31; assay type: cell-based; settings: Homo sapiens, Renal
Procedure: as §1

PC-3 = assay: NCI 60 screen, PC-3; assay type: cell-based; settings: Homo sapiens, Prostatic
Procedure: as §1

KM12 = assay: NCI 60 screen, KM12; assay type: cell-based; settings: Homo sapiens, Colon
Procedure: as §1

IGROV1 = assay: NCI 60 screen, IGROV1; assay type: cell-based; settings: Homo sapiens, IGROV-1, Ovarian
Procedure: as §1

SF-268 = assay: NCI 60 screen, SF-268; assay type: cell-based; settings: Homo sapiens, CNS
Procedure: as §1

NCI-H226 = assay: NCI 60 screen, NCI-H226; assay type: cell-based; settings: Homo sapiens, Non-Small Cell Lung
Procedure: as §1

OVCAR-5 = assay: NCI 60 screen, OVCAR-5; assay type: cell-based; settings: Homo sapiens, Ovarian
Procedure: as §1

BT-549 = assay: NCI 60 screen, BT-549; assay type: cell-based; settings: Homo sapiens, Breast
Procedure: as §1

T-47D = assay: NCI 60 screen, T-47D; assay type: cell-based; settings: Homo sapiens, T47D, Breast
Procedure: as §1

NCI/ADR-RES = assay: NCI 60 screen, NCI/ADR-RES; assay type: cell-based; settings: Homo sapiens, Ovarian
Procedure: as §1

MDA-MB-435 = assay: NCI 60 screen, MDA-MB-435; assay type: cell-based; settings: Homo sapiens, Melanoma
Procedure: as §1

SNB-75 = assay: NCI 60 screen, SNB-75; assay type: cell-based; settings: Homo sapiens, CNS
Procedure: as §1

SK-MEL-5 = assay: NCI 60 screen, SK-MEL-5; assay type: cell-based; settings: Homo sapiens, Melanoma
Procedure: as §1

With `COc1cc2c(Nc3ccc(NC(=O)c4ccccc4)cc3)ncnc2cc1OCCCN1CCOCC1` [ZM447439, reference compound] the “Chromosome alignment / centromere position” value [1] was “Many misaligned chromosomes”.
`O=C(Cc1ccc(/C=C/C(=O)c2ncc[nH]2)cc1)Nc1ccc(C(F)(F)F)cc1` [Compound 24, (E)-2-(4-(3-(1H-imidazole-2-yl)-3-oxoprop-1-en-1-yl)phenyl)-N-(4-(trifluoromethyl)phenyl) acetamide] gave a GI50 (RXF393) of 3.75 µM, a GI50 (CAKI-1) of 4.43 µM and a GI50 (NCI-322M) of 4.68 µM. The melting point was 240.5 °C, the GI50 (UACC-62) was 4.47 µM and the GI50 (ACHN) was 6.33 µM. For the same compound, the GI50 (A498) was 4.73 µM, the GI50 (SNB-19) was 2.79 µM and the GI50 (COLO 205) was 5.38 µM. It also gave a GI50 (A549/ATCC) of 6.37 µM, a GI50 (HL-60(TB)) of 2.03 µM and a GI50 (MDA-MB-231/ATCC) of 2.79 µM. For the same compound, the GI50 (NCI-H522) was 4.87 µM, the GI50 (K-562) was 1.24 µM and the GI50 (SK-OV-3) was 7.66 µM. It also gave a GI50 (SK-MEL-2 [2]) of 7.09 µM, a GI50 (HOP-92) of 4.89 µM and a GI50 (HCT-116) of 0.694 µM. It also gave a GI50 (SW-620) of 1.35 µM, a GI50 (RPMI-8226) of 0.78 µM and a GI50 (MOLT-4) of 2.29 µM. It also gave a GI50 (HT29) of 1.09 µM, a GI50 (MALME-3M) of 5.18 µM and a GI50 (SN12C) of 1.87 µM. It also gave a GI50 (SR) of 0.843 µM, a GI50 (NCI-460) of 3.6 µM and a GI50 (SF-539) of 4.52 µM. For the same compound, the GI50 (HCC-2998) was 3.97 µM, the GI50 (TK-10) was 6.63 µM and the GI50 (SK-MEL-2 [3]) was 5.32 µM. For the same compound, the GI50 (DU-145) was 2.13 µM, the GI50 (MCF7) was 0.851 µM and the GI50 (EKVX) was 5.57 µM. For the same compound, the GI50 (HS 578T) was 5.88 µM, the GI50 (NCI-H23) was 3.42 µM and the GI50 (CCRF-CEM) was 1.55 µM. It also gave a GI50 (UACC-257) of 7.2 µM, a GI50 (HCT15) of 1.04 µM and a GI50 (OVCAR-8) of 7.99 µM. It also gave a GI50 (U251) of 1.22 µM, a GI50 (M14) of 2.58 µM and a GI50 (HOP-62) of 4.8 µM. For the same compound, the GI50 (786-0) was 1.4 µM, the GI50 (OVCAR-4) was 5.12 µM and the GI50 (MDA-MB-468) was 1.77 µM. The GI50 (SF-295) was 4.08 µM, the GI50 (LOX IMVI) was 0.469 µM and the GI50 (OVCAR-3) was 1.09 µM. The GI50 (UO-31) was 2.43 µM, the GI50 (PC-3) was 2.81 µM and the GI50 (KM12) was 1.11 µM. The GI50 (IGROV1) was 3.84 µM, the GI50 (SF-268) was 3.05 µM and the GI50 (NCI-H226) was 6.11 µM. The GI50 (OVCAR-5) was 4.89 µM, the GI50 (BT-549) was 2.11 µM and the GI50 (T-47D) was 3.97 µM. For the same compound, the GI50 (NCI/ADR-RES) was 8.96 µM, the GI50 (MDA-MB-435) was 2.87 µM and the GI50 (SNB-75) was 3.97 µM. For the same compound, the GI50 (SK-MEL-5) was 5.55 µM.
